Source: patent publication US20250123269A1 (priority 2023, published 2025)

What was measured:
[1] = system: SARS-COV-2 B.1.617.2 delta; type: cell-based
[2] = system: SARS-COV-2 B.1.1.529 omicron; type: cell-based

With `Cc1c(O)cccc1C(=O)N[C@@H](CSc1ccccc1)[C@H](O)CN1C[C@H]2CCCC[C@H]2C[C@H]1C(=O)NC(C)(C)C` [nelfinavir] as the compound, how does the “dose-dependent inhibition of infection” value [1] read?
The value was “dose-dependent inhibition of infection”.

What about the inhibition of infection [1] of the same compound?
Its inhibition of infection is “did not completely inhibit infection”.

What about the “dose-dependent inhibition of infection” value [2] of the same compound?
Its value is “dose-dependent inhibition of infection”.

What about the inhibition of infection [2] of the same compound?
The inhibition of infection was “did not completely inhibit infection”.

Which results are given for `O=c1nc(NO)ccn1[C@@H]1O[C@H](CO)[C@@H](O)[C@H]1O` [EIDD-1931]?
dose-dependent inhibition of infection [1]: dose-dependent inhibition of infection; inhibition of infection [1]: complete inhibition; reduction of infection [1]: at least 50%; dose-dependent inhibition of infection [2]: dose-dependent inhibition of infection; inhibition of infection [2]: complete inhibition; reduction of infection [2]: at least 50%

Which results are given for `CC(C)(C)[C@H](NC(=O)C(F)(F)F)C(=O)N1C[C@H]2[C@@H]([C@H]1C(=O)N[C@H](C#N)C[C@@H]1CCNC1=O)C2(C)C` [nirmatrelvir, Nirmatrelvir]?
dose-dependent inhibition of infection [1]: dose-dependent inhibition of infection; reduction of infection [1]: 50%; dose-dependent inhibition of infection [2]: dose-dependent inhibition of infection; inhibition of infection [2]: nearly completely inhibited
